Counter-ions that a name gives are not always drawn.
Experiments:
rat sciatic nerve [1] = assay: Duration of anesthesia of bupivacaine microspheres (LAB) with co-injected additives, hotplate foot withdrawal; type: in vivo; settings: LAB 150 mg/kg perineural
Description: In this example, a large number of pharmaceutical agents were tested for activity in augmenting the duration of local anesthetic activity. Bupivacaine-containing microspheres at about 75% loading, by weight, were injected perineurally into rat sciatic nerve at a dose of 150 mg/kg (weight microspheres/weight rat) to dose of approximately 50 mg/nerve. For the injections, needle placement adjacent to the target nerve was optimized by intermittent electrical e stimulation of the target nerve (via the injection needle) with low amplitude current to produce limb flexion. For the injections, the microspheres were suspended in a carrier vehicle suitable for injection. While any pharmaceutically acceptable carrier vehicle is acceptable, for these experiments the carrier vehicle was 1% sodium carboxymethylcellulose and 1% Tween 80 in water.
Compounds to be tested were co-injected with bupivacaine containing microspheres (i.e., mixed as additives into the carrier vehicle) in a range of concentrations. Results are expressed as percent increase in duration relative to non-augmented durations that were obtained in the same animal model.
The duration of anesthesia was measured by the hotplate foot withdrawal method described above in Example 10 and refers to the time necessary for the animal to recover from maximal nerve latency (12 sec) to a latency of 7 seconds, approximately 50% recovery. The results are tabulated in Table 3 below as percent of control.

rat sciatic nerve [2] = assay: Rat sciatic nerve model, motor testing (4-point scale); type: in vivo; settings: augmenting agent with bupivacaine-loaded microspheres vs contralateral side with bupivacaine-loaded microspheres without the agent
Description: (§1) The duration of local anesthesia induced by the bupivacaine-loaded microspheres, prepared from PLGA 65:35, with and without the co-administration of an augmenting agent, is tested in a rat sciatic nerve model for localized local anesthesia. […] The latency test determines the time, in seconds, before a rat withdraws its hindpaw from a hotplate set to a safe but uncomfortable temperature (56° C.).
(§2) Selected rats are injected with a solution containing a suspension of bupivacaine-loaded microspheres plus co-administered augmenting agent on one side and injected with a control on the contralateral side so that each rat serves as its own control. Each injection is adjacent to the sciatic nerve. The controls are bupivacaine-loaded microspheres without co-administered augmenting agent and microspheres without any bupivacaine.
The degree of motor blockade is measured by scoring the appearance of the affected foot for the signs of loss of motor tone. The assessment is conducted as follows using a 4-point scale based on visual observation: (1) normal appearance, (2) intact dorsiflexion of foot with an impaired ability to splay toes when elevated by the tail, (3) toes and foot remained plantar flexed with no splaying ability, and (4) loss of dorsiflexion, flexion of toes, and impairment of gait.
Motor blockade is scored until the hind paws of motor blockades rats returned to a normal appearance.
Sensory and motor testing is conducted according to sections A and B, respectively, of EXAMPLE 10, above. Using the experimental protocol of section C of EXAMPLE 10, 24 rats are tested.
Sensory and motor testing is conducted according to sections A and B, respectively, of EXAMPLE 10, above.

rat sciatic nerve [3] = assay: Rat sciatic nerve model, sensory testing (hotplate hindpaw withdrawal latency); type: in vivo; settings: for duration of sensory block: augmenting agent with bupivacaine-loaded microspheres vs contralateral side with bupivacaine-loaded microspheres without the agent
Description: as §1, §2
As previously discussed, the degree of sensory local anesthesia is measured by determining the time or latency, in seconds, before each rat withdraws its hindpaw from a hotplate set to a safe but uncomfortable temperature. Maximum sciatic nerve sensory blockade is defined as having a latency of about 12 seconds or higher.
Twenty-four rats each receive an injection of bupivacaine-loaded controlled release microspheres into the left or right side, co-administered with a dextran containing injection solution. The contralateral side receive either bupivacaine-loaded microspheres at the same dose, or unloaded microspheres co-administered with a dextran injection solution.
Sensory hot plate latency is measured from the time of the injections until the latency declined to under 2 seconds.

superficial radial nerve = assay: Local anesthesia to pin prick after injection around the superficial radial nerve in normal volunteers; type: in vivo, humans; settings: n=6; EDLA 3 ml (37.5 mg total) or aqueous bupivacaine HCl 50 mg, single injection
Description: Finally, the two compartment release of bupivacaine from EDLA results in rapid onset and prolonged duration of local anesthesia in humans. Normal volunteers (n=6) received a single injection of 3 ml EDLA (37.5 mg total) or aqueous bupivacaine HCl (50 mg) around the superficial radial nerve. Onset of local anesthesia to pin prick over the anatomical snuff box was <3 hours with aqueous bupivacaine with duration of action 6-8 hours. Onset of local anesthesia with EDLA was <3 hours with duration of action 48-72 hours.

[4] = Microdialysis of bupivacaine at i.m. injection site in quadriceps muscle; type: in vivo, Sprague-Dawley rat; settings: 3 mg i.m., quadriceps femoris
Description: To determine whether bupivacaine is released from EDLA in two phases in-vivo, bupivacaine HCl and EDLA was injected into the quadriceps muscles of rats in which microdialysis catheters had been previously placed. Bupivacaine HCl was injected i.m. into the quadriceps femoris of a Sprague-Dawley rat around the area of a microdialysis catheter. […] This rapid escape is consistent with the very short duration of anesthetic action aqueous bupivacaine has in this model. Diffusion of bupivacaine, quantitated by HPLC, was from a single compartment that followed first order kinetics, k=0.25±0.04 min^−1. (SS=3.613). […] The first compartment was apparently identical to the mechanism of escape of soluble bupivacaine HCl, since the rate constant was essentially identical (k=0.22/minute). […] Calibration was determined in vivo by delivery of a 10 ug/ml solution of bupivacaine. […] Excellular bupivacaine was measured in the dialysate every 10 minutes. In vivo extracelluar concentration was determined from the dialysate concentration by factoring in the microdialysis probe recovery which had been previously determined. […]

[5] = immediate release vasoconstrictor, at best; cited from earlier work
rat sciatic nerve [6] = assay: Duration of anesthesia of bupivacaine microspheres (LAB) with co-injected additives, hotplate foot withdrawal; type: in vivo; settings: read-out: Duration Anesthesia As Percent of Control

Row | Molecule | Duration Anesthesia As Percent of Control (rat sciatic nerve [1]; % Additive Conc. 0.05) | Duration Anesthesia As Percent of Control (rat sciatic nerve [1]; % Additive Conc. 0.5) | also measured
1 | CC[C@]1(O)C[C@@H]2CN(CCc3c([nH]c4ccccc34)[C@@](C(=O)OC)(c3cc4c(cc3OC)N(C)[C@H]3[C@@](O)(C(=O)OC)[C@H](OC(C)=O)[C@]5(CC)C=CCN6CC[C@]43[C@@H]65)C2)C1 [Vinblastine] | 158% of Control | – | Duration Anesthesia As Percent of Control (rat sciatic nerve [1]; % Additive Conc. 0.11): 37% of Control; Duration Anesthesia As Percent of Control (rat sciatic nerve [1]; % Additive Conc. 1.09): 40% of Control
2 | Dextran | – | – | duration of motor block (rat sciatic nerve [2]): significantly increased duration of motor block; Duration Anesthesia As Percent of Control (rat sciatic nerve [1]; % Additive Conc. 3): 46-144% of Control; duration of sensory block (rat sciatic nerve [3]): significantly longer duration of sensory block; sensory blockade (rat sciatic nerve [3]; unloaded microspheres with dextran alone): no sensory blockade
3 | NC(=NCc1ccccc1)NC(=O)c1nc(Cl)c(N)nc1N [Benzamil] | 83% of Control | 154% of Control | –
4 | CC(=O)[C@H]1CC[C@H]2[C@@H]3CC[C@H]4C[C@H](O)CC[C@]4(C)[C@H]3C(=O)C[C@]12C [Alphaxalone] | 169% of Control | 123% of Control | –
5 | O=C1NC(=O)C(c2ccccc2)(c2ccccc2)N1 [5,5-diphenylhydantoin] | – | – | Duration Anesthesia As Percent of Control (rat sciatic nerve [1]; % Additive Conc. 0.11): 152% of Control; Duration Anesthesia As Percent of Control (rat sciatic nerve [1]; % Additive Conc. 1.09): 138% of Control
6 | CCCCN1CCCCC1C(=O)Nc1c(C)cccc1C (centres unmarked) [bupivacaine HCl] | – | – | duration of action of local anesthesia (superficial radial nerve): 6 to 8 h; k, first order escape of bupivacaine from i.m. injection site (single compartment) [4]: 0.25 ± 0.04 min⁻¹
7 | Nc1ccncc1 [Aminopyridine (4-AP), Aminopyridine] | 77% of Control | – | Duration Anesthesia As Percent of Control (rat sciatic nerve [1]; % Additive Conc. 0.11): 92% of Control; Duration Anesthesia As Percent of Control (rat sciatic nerve [1]; % Additive Conc. 1.09): 131% of Control
8 | CNC[C@H](O)c1ccc(O)c(O)c1 [epinephrine] | – | – | duration of motor block (rat sciatic nerve [2]): significantly increased duration of motor block; duration of sensory block (rat sciatic nerve [3]): significantly longer duration of sensory block; prolongation of local anesthetic activity [5]: ≤ 1 h
9 | CC(=O)O[C@H]1C(=O)[C@@]2(C)[C@H]([C@H](OC(=O)c3ccccc3)[C@]3(O)C[C@H](OC(=O)[C@H](O)[C@@H](NC(=O)c4ccccc4)c4ccccc4)C(C)=C1C3(C)C)[C@]1(OC(C)=O)CO[C@@H]1C[C@@H]2O [Taxol] | – | 82% of Control | Duration Anesthesia As Percent of Control (rat sciatic nerve [1]; % Additive Conc. 0.11): 104% of Control; Duration Anesthesia As Percent of Control (rat sciatic nerve [1]; % Additive Conc. 1.09): 108% of Control
10 | C[C@@H]1O[C@@H](O[C@H]2C[C@@H](O)[C@]3(CO)[C@H]4[C@H](O)C[C@]5(C)[C@@H](C6=CC(=O)OC6)CC[C@]5(O)[C@@H]4CC[C@]3(O)C2)[C@H](O)[C@H](O)[C@H]1O [Ouabain] | 154% of Control | 178% of Control | –
11 | C[C@]12CC[C@@H](O)C[C@@H]1CC[C@@H]1[C@@H]2C(=O)C[C@@]2(C)[C@H]1CC[C@]2(O)C(=O)CO [Allotetrahydrocortisone, allotetrahydrocortisone] | 100% of Control | 117% of Control | –
12 | Cc1c(N(C)C)c(=O)n(-c2ccccc2)n1C [Aminopyrine] | 146% of Control | 62% of Control | –
13 | CC(N)Cc1ccccc1 (centres unmarked) [amphetamine] | – | – | duration of motor block (rat sciatic nerve [2]): significantly increased duration of motor block; duration of sensory block (rat sciatic nerve [3]): significantly longer duration of sensory block
14 | CN[C@@H](C)[C@H](O)c1ccccc1 [ephedrine] | – | – | duration of motor block (rat sciatic nerve [2]): significantly increased duration of motor block; duration of sensory block (rat sciatic nerve [3]): significantly longer duration of sensory block
15 | CC1=NS(=O)(=O)c2cc(Cl)ccc2N1 [Diazoxide] | 138% of Control | 109% of Control | –
16 | CN1C(=O)CN=C(c2ccccc2)c2cc(Cl)ccc21 [Diazepam] | 231% of Control | 203% of Control | –
17 | COc1cc2c(c(OC)c1OC)-c1ccc(OC)c(=O)cc1[C@@H](NC(C)=O)CC2 [Colchicine] | – | – | Duration Anesthesia As Percent of Control (rat sciatic nerve [1]; % Additive Conc. 0.01): 104% of Control; Duration Anesthesia As Percent of Control (rat sciatic nerve [1]; % Additive Conc. 1.0): 277% of Control; Duration Anesthesia As Percent of Control (rat sciatic nerve [1]; % Additive Conc. 10): toxic; response vs control in vivo at 0.1 % (rat sciatic nerve [6]; % Additive Conc. 0.1, Placebo (in place of LAB)): 0%; response vs control in vivo at 10 % (rat sciatic nerve [6]; % Additive Conc. 10, no LAB): 0%
18 | Nc1cc(N2CCCCC2)nc(N)[n+]1[O-] [Minoxidil] | 54% of Control | 218-265% of Control | –
19 | Clc1cccc(Cl)c1N=C1NCCN1 [Clonidine] | 122% of Control | 71% of Control | –
20 | CCCC(CCC)C(=O)O [Valproic Acid] | 152% of Control | 138% of Control | –
21 | CC[N+](CC)(CC)CC [Tetraethylammonium] | 95% of Control | 123% of Control | –
22 | COc1ccc2c(c1)CC[C@@H]1[C@@H]2CC[C@]2(C)[C@@H](NCCCCCCN3C(=O)C=CC3=O)CC[C@@H]12 [U-73, 122, 1[6-[[17-beta-3-methoxyestra-1,3,5(10)-triene-17-yl]amino]hexl]1-H-pyrrole-2,5-dione] | 106% of Control | 115% of Control | –

Source: patent US6451335B1, “Formulations and methods for providing prolonged local anesthesia” (Euro-Celtique S.A., priority 1998, dated 2002)
